# In US20230085307A1, “PYRIDAZINONE COMPOUND AND HERBICIDE” (NISSAN CHEMICAL CORPORATION, priority 2019, published 2023):
# Columns and labels:
# [1] = test system: barnyard grass; test: Test Example 3: herbicidal effect by foliage application, Wagner pot (Table 18, symbol H); format: in vivo, barnyard grass (Echinochloa crus-galli); settings: 320 g/ha
# Summary of the method: (§1)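 Plants were sown in alluvial soil held under 0.1–0.5 cm standing water and grown 14 days in a greenhouse at 25–30 °C. An emulsifiable formulation, water-diluted to the set dose, was then sprayed onto the foliage, and effects were scored three weeks later using previously defined criteria.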
# [2] = test system: Chinese sprangletop; test: Test Example 3: herbicidal effect by foliage application, Wagner pot (Table 18, symbol D); format: in vivo, chinese sprangletop (Leptochloa chinensis); settings: 320 g/ha
# Summary of the method: as §1
# [3] = test system: rice flat sedge; test: Test Example 3: herbicidal effect by foliage application, Wagner pot (Table 18, symbol E); format: in vivo, rice flat sedge (Cyperus iria); settings: 320 g/ha
# Summary of the method: as §1
# [4] = test system: southern crabgrass; test: Test Example 4: herbicidal effect by soil treatment (Table 19, symbol F); format: in vivo, southern crabgrass (Digitaria ciliaris); settings: amount of applied herbicide 320 g/ha
# Summary of the method: (§2)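 Soil-surface application: an emulsion agent diluted with water to the predetermined dose is sprayed uniformly over seeds lying under roughly 1.5 cm of sterilized diluvial soil. Boxes stay in a greenhouse at 25° C. to 30° C. Three weeks later, each species is graded on previously defined criteria.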
# [5] = test system: green foxtail; test: Test Example 4: herbicidal effect by soil treatment (Table 19, symbol G); format: in vivo, green foxtail (Setaria viridis); settings: amount of applied herbicide 320 g/ha
# Summary of the method: as §2
# [6] = test system: barnyard grass; test: Test Example 4: herbicidal effect by soil treatment (Table 19, symbol H); format: in vivo, barnyard grass (Echinochloa crus-galli); settings: amount of applied herbicide 320 g/ha
# Summary of the method: as §2
# [7] = test system: wild oat; test: Test Example 4: herbicidal effect by soil treatment (Table 19, symbol I); format: in vivo, wild oat (Avena fatua); settings: amount of applied herbicide 320 g/ha
# Summary of the method: as §2
# [8] = test system: blackgrass; test: Test Example 4: herbicidal effect by soil treatment (Table 19, symbol J); format: in vivo, blackgrass (Alopecurus myosuroides); settings: amount of applied herbicide 320 g/ha
# Summary of the method: as §2
# [9] = test system: Italian ryegrass; test: Test Example 4: herbicidal effect by soil treatment (Table 19, symbol K); format: in vivo, Italian ryegrass (Lolium multiflorum); settings: amount of applied herbicide 320 g/ha
# Summary of the method: as §2
# [10] = test system: windgrass; test: Test Example 4: herbicidal effect by soil treatment (Table 19, symbol L); format: in vivo, windgrass (Apera spica-venti); settings: amount of applied herbicide 320 g/ha
# Summary of the method: as §2
# [11] = test system: velvetleaf; test: Test Example 4: herbicidal effect by soil treatment (Table 19, symbol M); format: in vivo, velvetleaf (Abutilon theophrasti); settings: amount of applied herbicide 320 g/ha
# Summary of the method: as §2
# [12] = test system: redroot pigweed; test: Test Example 4: herbicidal effect by soil treatment (Table 19, symbol N); format: in vivo, redroot pigweed (Amaranthus retroflexus); settings: amount of applied herbicide 320 g/ha
# Summary of the method: as §2
# [13] = test system: lambsquarters; test: Test Example 4: herbicidal effect by soil treatment (Table 19, symbol O); format: in vivo, lambsquarters (Chenopodium album); settings: amount of applied herbicide 320 g/ha
# Summary of the method: as §2
# [14] = test system: chickweed; test: Test Example 4: herbicidal effect by soil treatment (Table 19, symbol P); format: in vivo, common chickweed (Stellaria media); settings: amount of applied herbicide 320 g/ha
# Summary of the method: as §2
# [15] = test system: persian speedwell; test: Test Example 4: herbicidal effect by soil treatment (Table 19, symbol R); format: in vivo, Persian speedwell (Veronica persica); settings: amount of applied herbicide 320 g/ha
# Summary of the method: as §2
# [16] = test system: southern crabgrass; test: Test Example 5: herbicidal effect by foliage application, plastic box (Table 20, symbol F); format: in vivo, southern crabgrass (Digitaria ciliaris); settings: foliage application, 320 g/ha
# Summary of the method: (§3)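 Sow seeds spot-wise in sterilized diluvial soil; cover with ~1.5 cm soil. Grow 14 days in greenhouse, 25° C. to 30° C. Spray foliage with emulsion diluted to predetermined amount. Rate effect after 3 weeks.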
# [17] = test system: green foxtail; test: Test Example 5: herbicidal effect by foliage application, plastic box (Table 20, symbol G); format: in vivo, green foxtail (Setaria viridis); settings: foliage application, 320 g/ha
# Summary of the method: as §3
# [18] = test system: barnyard grass; test: Test Example 5: herbicidal effect by foliage application, plastic box (Table 20, symbol H); format: in vivo, barnyard grass (Echinochloa crus-galli); settings: foliage application, 320 g/ha
# Summary of the method: as §3
# [19] = test system: wild oat; test: Test Example 5: herbicidal effect by foliage application, plastic box (Table 20, symbol I); format: in vivo, wild oat (Avena fatua); settings: foliage application, 320 g/ha
# Summary of the method: as §3
# [20] = test system: blackgrass; test: Test Example 5: herbicidal effect by foliage application, plastic box (Table 20, symbol J); format: in vivo, blackgrass (Alopecurus myosuroides); settings: foliage application, 320 g/ha
# Summary of the method: as §3
# [21] = test system: Italian ryegrass; test: Test Example 5: herbicidal effect by foliage application, plastic box (Table 20, symbol K); format: in vivo, Italian ryegrass (Lolium multiflorum); settings: foliage application, 320 g/ha
# Summary of the method: as §3
# [22] = test system: windgrass; test: Test Example 5: herbicidal effect by foliage application, plastic box (Table 20, symbol L); format: in vivo, windgrass (Apera spica-venti); settings: foliage application, 320 g/ha
# Summary of the method: as §3
# [23] = test system: velvetleaf; test: Test Example 5: herbicidal effect by foliage application, plastic box (Table 20, symbol M); format: in vivo, velvetleaf (Abutilon theophrasti); settings: foliage application, 320 g/ha
# Summary of the method: as §3
# [24] = test system: redroot pigweed; test: Test Example 5: herbicidal effect by foliage application, plastic box (Table 20, symbol N); format: in vivo, redroot pigweed (Amaranthus retroflexus); settings: foliage application, 320 g/ha
# Summary of the method: as §3
# [25] = test system: lambsquarters; test: Test Example 5: herbicidal effect by foliage application, plastic box (Table 20, symbol O); format: in vivo, lambsquarters (Chenopodium album); settings: foliage application, 320 g/ha
# Summary of the method: as §3
# [26] = test system: chickweed; test: Test Example 5: herbicidal effect by foliage application, plastic box (Table 20, symbol P); format: in vivo, common chickweed (Stellaria media); settings: foliage application, 320 g/ha
# Summary of the method: as §3
# [27] = test system: false cleavers; test: Test Example 5: herbicidal effect by foliage application, plastic box (Table 20, symbol Q); format: in vivo, false cleavers (Galium spurium); settings: foliage application, 320 g/ha
# Summary of the method: as §3
# [28] = test system: persian speedwell; test: Test Example 5: herbicidal effect by foliage application, plastic box (Table 20, symbol R); format: in vivo, Persian speedwell (Veronica persica); settings: foliage application, 320 g/ha
# Summary of the method: as §3
# [29] = evaluated three weeks after application
smiles,measurement,setting,value
CCCC(=O)Oc1c(C)nn(C)c(=O)c1-c1c(-c2ccc(C)c(C)c2)sc2ccccc12 [1-066],"herbicidal effect on H (barnyard grass), rating 0-5",[1],2 (Herbicidal rate of 20% or more and less than 40%)
same,"herbicidal effect on D (Chinese sprangletop), rating 0-5",[2],0 (Herbicidal rate of 5% or less (almost no effect))
same,"herbicidal effect on E (rice flat sedge), rating 0-5",[3],5 (Herbicidal rate of 90% or more (almost completely withered))
same,"herbicidal effect rating, F: southern crabgrass",[4],0 (Herbicidal rate of 5% or less (almost no effect))
same,"herbicidal effect rating, G: green foxtail",[5],0 (Herbicidal rate of 5% or less (almost no effect))
same,"herbicidal effect rating, H: barnyard grass",[6],0 (Herbicidal rate of 5% or less (almost no effect))
same,"herbicidal effect rating, I: wild oat",[7],0 (Herbicidal rate of 5% or less (almost no effect))
same,"herbicidal effect rating, J: blackgrass",[8],0 (Herbicidal rate of 5% or less (almost no effect))
same,"herbicidal effect rating, K: Italian ryegrass",[9],0 (Herbicidal rate of 5% or less (almost no effect))
same,"herbicidal effect rating, L: windgrass",[10],0 (Herbicidal rate of 5% or less (almost no effect))
same,"herbicidal effect rating, M: velvetleaf",[11],0 (Herbicidal rate of 5% or less (almost no effect))
same,"herbicidal effect rating, N: redroot pigweed",[12],0 (Herbicidal rate of 5% or less (almost no effect))
same,"herbicidal effect rating, O: lambsquarters",[13],0 (Herbicidal rate of 5% or less (almost no effect))
same,"herbicidal effect rating, P: chickweed",[14],2 (Herbicidal rate of 20% or more and less than 40%)
same,"herbicidal effect rating, R: persian speedwell",[15],4 (Herbicidal rate of 70% or more and less than 90%)
same,"herbicidal effect grade, F: southern crabgrass",[16]; three weeks after application,2 (Herbicidal rate of 20% or more and less than 40%)
same,"herbicidal effect grade, G: green foxtail",[17]; three weeks after application,3 (Herbicidal rate of 40% or more and less than 70%)
same,"herbicidal effect grade, H: barnyard grass",[18]; three weeks after application,2 (Herbicidal rate of 20% or more and less than 40%)
same,"herbicidal effect grade, I: wild oat",[19]; three weeks after application,1 (Herbicidal rate of 5% or more and less than 20%)
same,"herbicidal effect grade, J: blackgrass",[20]; three weeks after application,0 (Herbicidal rate of 5% or less (almost no effect))
same,"herbicidal effect grade, K: Italian ryegrass",[21]; three weeks after application,0 (Herbicidal rate of 5% or less (almost no effect))
same,"herbicidal effect grade, L: windgrass",[22]; three weeks after application,0 (Herbicidal rate of 5% or less (almost no effect))
same,"herbicidal effect grade, M: velvetleaf",[23]; three weeks after application,4 (Herbicidal rate of 70% or more and less than 90%)
same,"herbicidal effect grade, N: redroot pigweed",[24]; three weeks after application,4 (Herbicidal rate of 70% or more and less than 90%)
same,"herbicidal effect grade, O: lambsquarters",[25]; three weeks after application,0 (Herbicidal rate of 5% or less (almost no effect))
same,"herbicidal effect grade, P: chickweed",[26]; three weeks after application,5 (Herbicidal rate of 90% or more (almost completely withered))
same,"herbicidal effect grade, Q: false cleavers",[27]; three weeks after application,2 (Herbicidal rate of 20% or more and less than 40%)
same,"herbicidal effect grade, R: persian speedwell",[28]; three weeks after application,5 (Herbicidal rate of 90% or more (almost completely withered))
COc1ccc(-c2sc3ccc(Cl)cc3c2-c2c(O)c(C)nn(C)c2=O)cc1 [2-103],"herbicidal effect on H (barnyard grass), rating 0-5",[1],3 (Herbicidal rate of 40% or more and less than 70%)
same,"herbicidal effect on D (Chinese sprangletop), rating 0-5",[2],2 (Herbicidal rate of 20% or more and less than 40%)
same,"herbicidal effect on E (rice flat sedge), rating 0-5",[3],5 (Herbicidal rate of 90% or more (almost completely withered))
same,"F: southern crabgrass, herbicidal effect rating",[4],0 (Herbicidal rate of 5% or less (almost no effect))
same,"G: green foxtail, herbicidal effect rating",[5],0 (Herbicidal rate of 5% or less (almost no effect))
same,"H: barnyard grass, herbicidal effect rating",[6],0 (Herbicidal rate of 5% or less (almost no effect))
same,"I: wild oat, herbicidal effect rating",[7],0 (Herbicidal rate of 5% or less (almost no effect))
same,"J: blackgrass, herbicidal effect rating",[8],0 (Herbicidal rate of 5% or less (almost no effect))
same,"K: Italian ryegrass, herbicidal effect rating",[9],0 (Herbicidal rate of 5% or less (almost no effect))
same,"L: windgrass, herbicidal effect rating",[10],0 (Herbicidal rate of 5% or less (almost no effect))
same,"M: velvetleaf, herbicidal effect rating",[11],3 (Herbicidal rate of 40% or more and less than 70%)
same,"N: redroot pigweed, herbicidal effect rating",[12],4 (Herbicidal rate of 70% or more and less than 90%)
same,"O: lambsquarters, herbicidal effect rating",[13],4 (Herbicidal rate of 70% or more and less than 90%)
same,"P: chickweed, herbicidal effect rating",[14],4 (Herbicidal rate of 70% or more and less than 90%)
same,"R: persian speedwell, herbicidal effect rating",[15],5 (Herbicidal rate of 90% or more (almost completely withered))
same,herbicidal effect on F: southern crabgrass,[16]; [29],0 (Herbicidal rate of 5% or less (almost no effect))
same,herbicidal effect on G: green foxtail,[17]; [29],0 (Herbicidal rate of 5% or less (almost no effect))
same,herbicidal effect on H: barnyard grass,[18]; [29],0 (Herbicidal rate of 5% or less (almost no effect))
same,herbicidal effect on I: wild oat,[19]; [29],0 (Herbicidal rate of 5% or less (almost no effect))
same,herbicidal effect on J: blackgrass,[20]; [29],1 (Herbicidal rate of 5% or more and less than 20%)
same,herbicidal effect on K: Italian ryegrass,[21]; [29],0 (Herbicidal rate of 5% or less (almost no effect))
same,herbicidal effect on L: windgrass,[22]; [29],5 (Herbicidal rate of 90% or more (almost completely withered))
same,herbicidal effect on M: velvetleaf,[23]; [29],4 (Herbicidal rate of 70% or more and less than 90%)
same,herbicidal effect on N: redroot pigweed,[24]; [29],3 (Herbicidal rate of 40% or more and less than 70%)
same,herbicidal effect on O: lambsquarters,[25]; [29],4 (Herbicidal rate of 70% or more and less than 90%)
same,herbicidal effect on P: chickweed,[26]; [29],5 (Herbicidal rate of 90% or more (almost completely withered))
same,herbicidal effect on Q: false cleavers,[27]; [29],3 (Herbicidal rate of 40% or more and less than 70%)
same,herbicidal effect on R: persian speedwell,[28]; [29],5 (Herbicidal rate of 90% or more (almost completely withered))
